# pIC50: −log10 of the molar value. Active and inactive are the calls of the source. No cut-off for these calls is given here.
# Tests used:
# c-Myc/Max (Homo sapiens) [1] = biological target: T1, c-Myc/Max (Homo sapiens) (UniProt P01106+P61244); experiment: (§1) Inhibition of His6-tagged homogeneously purified recombinant Myc bHLH-LZ domain (unknown origin)/His6-tagged Max (151 residues) (unknown origin) interaction assessed as reduction in Myc/Max/DNA ternary complex formation using fluorescently-tagged (FAM) E-Box-containing double-stranded oligonucleotide at 100 uM by EMSA relative to control; format: protein-complex assay
# HL-60 [2] = experiment: Antiproliferative activity against human HL60 cells assessed as reduction in cell proliferation incubated for 3 to 4 days by MTT assay; format: functional, cell-based
# Daudi = experiment: Antiproliferative activity against human Daudi cells assessed as reduction in cell proliferation incubated for 3 to 4 days by MTT assay; format: functional, cell-based
# c-Myc/Max (Homo sapiens) [3] = biological target: T1, c-Myc/Max (Homo sapiens); experiment: Inhibition of Myc/Max protein interaction in human HL60 cells assessed as reduction in Myc/Max heterodimer formation at 1 to 12 uM by co-immunoprecipitation assay; format: cell-based
# c-Myc/Max = c-Myc/Max (Homo sapiens, UniProt P01106); experiment: as §1, with “oligonucleotide” for “oligonucleotide at 100 uM”; format: protein-complex assay
# HL-60 [4] = experiment: Induction of cell cycle arrest in human HL60 cells assessed as accumulation at S phase at 5 uM incubated for 24 to 48 hrs by propidium iodide staining based flow cytometric analysis (reference value: 50%); format: functional
# HL-60 [5] = experiment: Induction of cell cycle arrest in human HL60 cells assessed as accumulation at G0/G1 phase at 10 uM incubated for 24 to 48 hrs by propidium iodide staining based flow cytometric analysis (reference value: 36%); format: functional
# [6] = biological target: Myc proto-oncogene protein (Homo sapiens) (UniProt P01106); experiment: Inhibition of Myc in human HL60 cells co-transfected with Myc-responsive E-box elements assessed as reduction c-Myc promoter-mediated luciferase expression at 10 to 50 uM after 6 hrs; format: cell-based
# HL-60 [7] = experiment: Induction of cell cycle arrest in human HL60 cells assessed as accumulation at G0/G1 phase incubated for 24 to 48 hrs by propidium iodide staining based flow cytometric analysis; format: functional
# HL-60 [8] = experiment: Induction of cell cycle arrest in human HL60 cells assessed as accumulation at G2/M phase at 5 uM incubated for 24 to 48 hrs by propidium iodide staining based flow cytometric analysis (reference value: 14%); format: functional
# HL-60 [9] = experiment: Induction of cell cycle arrest in human HL60 cells assessed as accumulation at S phase at 10 uM incubated for 24 to 48 hrs by propidium iodide staining based flow cytometric analysis (reference value: 50%); format: functional
# HL-60 [10] = experiment: Induction of cell cycle arrest in human HL60 cells assessed as accumulation at G0/G1 phase at 5 uM incubated for 24 to 48 hrs by propidium iodide staining based flow cytometric analysis (reference value: 36%); format: functional
# HL-60 [11] = experiment: Induction of cell cycle arrest in human HL60 cells assessed as accumulation at G2/M phase at 10 uM incubated for 24 to 48 hrs by propidium iodide staining based flow cytometric analysis (reference value: 14%); format: functional
# [12] = Half life in plasma (unknown origin); format: ADME, cell-free
inhibition (c-Myc/Max (Homo sapiens) [1]),pIC50 (HL-60 [2]),pIC50 (Daudi),SMILES,other results
–,< 4.60,5.13,CCOC(=O)c1ccc(Nc2ccc([N+](=O)[O-])c3nonc23)cc1,–
–,5.14,5.46,O=C(OCc1ccccc1)c1ccc(Nc2ccc([N+](=O)[O-])c3nonc23)cc1,–
49%,–,–,O=C(O)c1cc([N+](=O)[O-])ccc1Nc1ccccc1-c1ccccc1,–
–,5.07,5.72,O=C(OCC(F)(F)F)c1ccc(Nc2ccc([N+](=O)[O-])c3nonc23)cc1,inhibition (c-Myc/Max (Homo sapiens) [3]): Active
–,5.03,5.51,CC(C)OC(=O)c1ccc(Nc2ccc([N+](=O)[O-])c3nonc23)cc1,–
38 to 39%,–,–,O=[N+]([O-])c1ccc(Nc2ccccc2-c2ccccc2)c2nonc12,half-life [12]: 37 min
20%,–,–,O=[N+]([O-])c1ccc(Nc2cccc(-c3ccccc3)c2)c2nonc12,–

# Second part, the molecule before the results:
SMILES,inhibition (c-Myc/Max (Homo sapiens) [1]),pIC50 (HL-60 [2]),pIC50 (Daudi),other results
O=C(O)c1ccc(Nc2ccc([N+](=O)[O-])c3nonc23)cc1,93 to 94%,–,–,–
O=[N+]([O-])c1ccc(Nc2ccccc2Br)c2nonc12,39%,–,–,–
CC(=O)OCOC(=O)c1ccc(Nc2ccc([N+](=O)[O-])c3nonc23)cc1,–,4.50,4.51,–
O=C(Oc1ccccc1)c1ccc(Nc2ccc([N+](=O)[O-])c3nonc23)cc1,–,–,5.51 to 5.60,inhibition (c-Myc/Max (Homo sapiens) [3]): Active; pIC50 (c-Myc/Max): 4.40
COC(=O)c1ccc(Nc2ccc([N+](=O)[O-])c3nonc23)cc1,–,4.70,5.11,–
COC(=O)c1ccc(Nc2ccc([N+](=O)[O-])c3nonc23)c(-c2ccc(C)cc2)c1,–,–,–,Activity (HL-60 [4]): 44%; Activity (HL-60 [5]): 59.5%; inhibition [6]: Active; Activity (HL-60 [7]): Dose-dependent effect; Activity (HL-60 [8]): 12%; Activity (HL-60 [9]): 23%; Activity (HL-60 [10]): 44%; Activity (HL-60 [11]): 17%
